Legend:
Assay type in all cases: biochemical
Human recombinant MMP-1 = biological target: T1, Human recombinant MMP-1 (Homo sapiens, UniProt P03956); experiment: In vitro MMP inhibition assay, MMP-1 (fluorogenic peptide substrate cleavage, Ki); conditions: human MMP-1, full length (FL); read-out: hMMP Ki 01/FL
T1 construct: made in house; host or cells: MMP-1-transfected HT-1080 cells
T1 sequence (P03956 100-469): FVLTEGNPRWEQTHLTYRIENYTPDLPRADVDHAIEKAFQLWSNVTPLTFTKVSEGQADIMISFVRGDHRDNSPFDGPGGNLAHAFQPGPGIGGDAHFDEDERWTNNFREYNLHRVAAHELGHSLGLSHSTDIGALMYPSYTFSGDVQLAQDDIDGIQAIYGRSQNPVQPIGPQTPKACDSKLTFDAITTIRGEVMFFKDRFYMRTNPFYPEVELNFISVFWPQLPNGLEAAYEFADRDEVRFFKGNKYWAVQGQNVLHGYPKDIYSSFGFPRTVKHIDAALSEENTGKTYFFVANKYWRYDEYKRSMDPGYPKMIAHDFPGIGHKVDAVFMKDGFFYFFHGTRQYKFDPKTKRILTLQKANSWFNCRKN
Method: (§1) Matrix Metalloproteinase inhibitor compounds were analyzed in in vitro MMP Inhibition assays to determine their ability to inhibit the MMP cleavage of peptide substrates. Inhibition constants (Ki) were calculated from the assayed compound-MMP interactions.
(§2) Human recombinant MMP-1, MMP-2, MMP-3, MMP-7, MMP-9, MMP-12, MMP-13, MMP-14 and MMP-15 were used in these assays. The enzymes are prepared following known laboratory procedures. Protocols for the preparation and use of these enzymes are available in the scientific literature. See, e.g., Enzyme Nomenclature (Academic Press, San Diego, Calif., 1992) and the citations therein. See also Frije et al., J. Biol. Chem., 26(24), 16766-73 (1994).
The MMP-1 proenzyme may be purified from spent media of MMP-1-transfected HT-1080 cells and the protein purified on a zinc chelating column. The MMP-2 proenzyme may be purified by gelatin Sepharose chromatography from MMP-2-transfected p2AHT2 cells. […]
(§3) The inhibitors are analyzed using a single low enzyme concentration with a single substrate concentration fixed at or below the Km. […] Apparent inhibitory constants are determined by non-linear regression of reaction velocity as a function of inhibitor and enzyme concentration using Morrison's equation, as described by Kuzmic, Anal. Biochem. 286, 45-50 (2000). […]

Human recombinant MMP-7 = biological target: T2, Human recombinant MMP-7 (Homo sapiens, UniProt P09237); experiment: In vitro MMP inhibition assay, MMP-7 (fluorogenic peptide substrate cleavage, Ki); conditions: human MMP-7 (CD); read-out: hMMP Ki 07/CD
T2 construct: 07/CD; made in house
T2 sequence (P09237 95-267): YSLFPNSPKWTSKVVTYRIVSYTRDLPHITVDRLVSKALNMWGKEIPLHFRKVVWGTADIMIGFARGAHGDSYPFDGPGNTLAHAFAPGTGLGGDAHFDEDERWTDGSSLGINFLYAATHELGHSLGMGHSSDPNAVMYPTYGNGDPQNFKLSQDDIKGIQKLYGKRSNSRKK
Method: as §1, §2
The MMP-7 cDNA may be used to express the enzyme in E. coli inclusion bodies. Then the enzyme is solubilized in urea, purified on a preparative […] reverse phase HPLC column, and refolded in the presence of zinc acetate and purified for use. […]
as §3

Human recombinant MMP-12 = biological target: T3, Human recombinant MMP-12 (Homo sapiens, UniProt P39900); experiment: In vitro MMP inhibition assay, MMP-12 catalytic domain (fluorogenic peptide substrate cleavage, Ki); conditions: human MMP-12, catalytic domain (CD); read-out: hMMP Ki 12/CD
T3 construct: The catalytic domain of MMP-12 and MMP-15 enzymes were purchased commercially for these assays; purchased
T3 sequence (P39900 106-263 limits assumed): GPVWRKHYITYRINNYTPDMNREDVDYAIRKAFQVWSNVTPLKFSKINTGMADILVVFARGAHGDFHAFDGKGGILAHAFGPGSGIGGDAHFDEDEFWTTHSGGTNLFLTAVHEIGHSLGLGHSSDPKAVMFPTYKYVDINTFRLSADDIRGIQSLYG
Method: as §1, §2
The catalytic domain of MMP-12 and MMP-15 enzymes were purchased commercially for these assays.
The fluorogenic, methoxycoumarin-containing polypeptide substrate MCA-ArgProLeuGlyLeuDpaAlaArgGluArgNH2 was used as the MMP substrate in the MMP inhibition assays for human recombinant MMP-1, MMP-2, MMP-7, MMP-9, MMP-12, MMP-13, MMP-14 and MMP-15. Here, “MCA” is 7-methoxycoumarin-4-yl acetyl and “Dpa” is 3-(2,4-dinitrophenyl)-L-2,3-di-aminopropionyl group. In the absence of MMP inhibitory activity, the substrate is cleaved at the Gly-Leu peptide bond. The cleavage separates the highly fluorogenic peptide from the 2,4-dinitrophenyl quencher, resulting in an increase of fluorescent intensity.
For the human MMP-1, MMP-2, MMP-7, MMP-9, MMP-12, MMP-13, MMP-14 and MMP-15 assays, dilutions of the inhibitors (or salts thereof) were prepared in 100% dimethyl sulfoxide (DMSO). The stock solutions were diluted in Buffer A (100 mM Tris-HCl, 100 mM NaCl, 10 mM CaCl2, 0.005% polyoxyethylene 23 lauryl ether, pH 7.5) to obtain solutions with different compound concentrations, i.e., assay solutions with different concentrations of the assayed MMP inhibitory compound in 1% DMSO. The experiment controls contained the same amount of Buffer A/DMSO as the assayed sample, but contained no inhibitor.
To determine Ki, the inhibitor samples are incubated at room temperature for 1 hr in the presence of enzyme and then 4 μM of appropriate MMP substrate was added, and samples were analyzed on a Tecan SpectraFlour Plus plate reader. The excitation wavelength is 330 nm, and the emission (fluorescence) wavelength is 420 nm. In the absence of MMP inhibitory activity, the substrate is cleaved at the Gly-Leu bond resulting in an increase of relative fluorescence. Inhibition is observed as a reduced rate of increase in relative fluorescence.
The inhibitors are analyzed using a single low enzyme concentration with a single substrate concentration fixed at or below the Km. This protocol is a modification of method by Knight et al., FEBS Lett., 296(3), 263-266 (1992). Apparent inhibitory constants are determined by non-linear regression of reaction velocity as a function of inhibitor and enzyme concentration using Morrison's equation, as described by Kuzmic, Anal. Biochem. 286, 45-50 (2000). Modifications were made in the non-linear regression method to allow a common control reaction rate and effective enzyme concentration to be shared between all dose-response relationships on a given assay plate. Since the substrate concentration was chosen to be at or below the Km, the apparent Ki's from this analysis were reported as Ki's without correction for the influence of substrate.

Compound COc1cccc(CNC(=O)c2nc3ccc(F)c(OCCC4CCN(C(=O)CO)CC4)c3c(=O)[nH]2)c1 [Example 34, 6-fluoro-5-[2-(1-glycoloylpiperidin-4-yl)ethoxy]-N-(3-methoxybenzyl)-4-oxo-3,4-dihydroquinazoline-2-carboxamide] has a Ki (Human recombinant MMP-1) of over 10 µM, a Ki (Human recombinant MMP-7) of over 10 µM and a Ki (Human recombinant MMP-12) of 6.53 µM.

From patent US20110009435A1, “HETERO BICYCLIC CARBOXAMIDE DERIVATIVES AND THEIR PHARMACEUTICAL USE AND COMPOSITIONS” (Pfizer, Inc., priority 2007, published 2011)
